# Measured values taken from the NIST ThermoML archive (doi:10.1021/acs.jced.8b00132).
# “And” between values parts separate entries of the source, which are not always exact repeats. Equal entries are not always repeated. ± gives the expanded uncertainty stated by the source.
# Conditions: Gas
compound,measurement,setting,value
O=C(C(F)(F)C(F)(F)F)C(F)(C(F)(F)F)C(F)(F)F [dodecafluoro-2-methylpentan-3-one],thermal conductivity,"499.7 K, 3616 kPa, transient hot wire",0.03337 ± 0.0021 W/m/K
same,thermal conductivity,"499.7 K, 4324 kPa, transient hot wire",0.03528 ± 0.0022 W/m/K
same,thermal conductivity,"499.7 K, 5590 kPa, transient hot wire",0.03721 ± 0.00089 W/m/K
same,thermal conductivity,"499.7 K, 35697 kPa, transient hot wire",0.05683 ± 0.0014 W/m/K
same,thermal conductivity,"499.7 K, 50253 kPa, transient hot wire",0.06228 ± 0.0016 W/m/K
same,thermal conductivity,"499.7 K, 50292 kPa, transient hot wire",0.06274 ± 0.0016 W/m/K
same,thermal conductivity,"499.71 K, 3616 kPa, transient hot wire",0.03339 ± 0.0021 W/m/K
same,thermal conductivity,"499.71 K, 25604 kPa, transient hot wire",0.05236 ± 0.0013 W/m/K
same,thermal conductivity,"499.72 K, 3288 kPa, transient hot wire",0.03208 ± 0.002 W/m/K
same,thermal conductivity,"499.72 K, 4324 kPa, transient hot wire",0.03516 ± 0.0022 W/m/K
same,thermal conductivity,"499.72 K, 18413 kPa, transient hot wire",0.04809 ± 0.0012 W/m/K
same,thermal conductivity,"499.73 K, 643 kPa, hot wire",0.02734 ± 0.0013 W/m/K and 0.02744 ± 0.0013 W/m/K
same,thermal conductivity,"499.73 K, 4855 kPa, transient hot wire",0.03606 ± 0.00086 W/m/K and 0.03623 ± 0.00086 W/m/K
same,thermal conductivity,"499.73 K, 18416 kPa, transient hot wire",0.04833 ± 0.0012 W/m/K
same,thermal conductivity,"499.73 K, 35665 kPa, transient hot wire",0.05687 ± 0.0014 W/m/K
same,thermal conductivity,"499.74 K, 3288 kPa, transient hot wire",0.03222 ± 0.002 W/m/K
same,thermal conductivity,"499.74 K, 3937 kPa, transient hot wire",0.03429 ± 0.0021 W/m/K
same,thermal conductivity,"499.74 K, 50254 kPa, transient hot wire",0.06235 ± 0.0016 W/m/K
same,thermal conductivity,"499.75 K, 418 kPa, hot wire",0.02717 ± 0.0013 W/m/K
same,thermal conductivity,"499.75 K, 2128 kPa, transient hot wire",0.02829 ± 0.0017 W/m/K
same,thermal conductivity,"499.75 K, 35673 kPa, transient hot wire",0.05679 ± 0.0014 W/m/K
same,thermal conductivity,"499.75 K, 35689 kPa, transient hot wire",0.05686 ± 0.0014 W/m/K
same,thermal conductivity,"499.75 K, 50278 kPa, transient hot wire",0.06281 ± 0.0016 W/m/K
same,thermal conductivity,"499.76 K, 417 kPa, hot wire",0.02687 ± 0.0013 W/m/K
same,thermal conductivity,"499.76 K, 1595 kPa, transient hot wire",0.02727 ± 0.0009 W/m/K
same,thermal conductivity,"499.76 K, 5594 kPa, transient hot wire",0.03739 ± 0.00089 W/m/K
same,thermal conductivity,"499.76 K, 25601 kPa, transient hot wire",0.05218 ± 0.0013 W/m/K
same,thermal conductivity,"499.76 K, 25602 kPa, transient hot wire",0.05226 ± 0.0013 W/m/K
same,thermal conductivity,"499.76 K, 50255 kPa, transient hot wire",0.06232 ± 0.0016 W/m/K
same,thermal conductivity,"499.77 K, 1595 kPa, transient hot wire",0.0273 ± 0.0009 W/m/K
same,thermal conductivity,"499.77 K, 4324 kPa, transient hot wire",0.03524 ± 0.0022 W/m/K
same,thermal conductivity,"499.78 K, 5592 kPa, transient hot wire",0.03734 ± 0.00089 W/m/K
same,thermal conductivity,"499.79 K, 60 kPa, hot wire",0.02624 ± 0.0012 W/m/K
same,thermal conductivity,"499.79 K, 218 kPa, hot wire",0.02627 ± 0.0012 W/m/K
same,thermal conductivity,"499.79 K, 2953 kPa, transient hot wire",0.03092 ± 0.0019 W/m/K
same,thermal conductivity,"499.79 K, 3618 kPa, transient hot wire",0.03355 ± 0.0021 W/m/K
same,thermal conductivity,"499.79 K, 4324 kPa, transient hot wire",0.03534 ± 0.0022 W/m/K
same,thermal conductivity,"499.79 K, 35664 kPa, transient hot wire",0.05692 ± 0.0014 W/m/K
same,thermal conductivity,"499.79 K, 50251 kPa, transient hot wire",0.06211 ± 0.0016 W/m/K
same,thermal conductivity,"499.8 K, 60 kPa, hot wire",0.02618 ± 0.0012 W/m/K
same,thermal conductivity,"499.8 K, 217 kPa, hot wire",0.02613 ± 0.0012 W/m/K
same,thermal conductivity,"499.8 K, 869 kPa, transient hot wire",0.02693 ± 0.0016 W/m/K and 0.02695 ± 0.0017 W/m/K
same,thermal conductivity,"499.8 K, 2952 kPa, transient hot wire",0.03103 ± 0.0019 W/m/K
same,thermal conductivity,"499.8 K, 3936 kPa, transient hot wire",0.03437 ± 0.0021 W/m/K
same,thermal conductivity,"499.8 K, 4855 kPa, transient hot wire",0.03629 ± 0.00086 W/m/K
same,thermal conductivity,"499.81 K, 2569 kPa, transient hot wire",0.0294 ± 0.0018 W/m/K
same,thermal conductivity,"499.81 K, 3287 kPa, transient hot wire",0.0325 ± 0.002 W/m/K and 0.03233 ± 0.002 W/m/K
same,thermal conductivity,"499.81 K, 3936 kPa, transient hot wire",0.03445 ± 0.0021 W/m/K
same,thermal conductivity,"499.81 K, 35680 kPa, transient hot wire",0.05678 ± 0.0014 W/m/K
same,thermal conductivity,"499.81 K, 35689 kPa, transient hot wire",0.05675 ± 0.0014 W/m/K
same,thermal conductivity,"499.81 K, 50253 kPa, transient hot wire",0.06239 ± 0.0016 W/m/K
same,thermal conductivity,"499.82 K, 2568 kPa, transient hot wire",0.02959 ± 0.0018 W/m/K
same,thermal conductivity,"499.82 K, 35681 kPa, transient hot wire",0.05686 ± 0.0014 W/m/K
same,thermal conductivity,"499.83 K, 646 kPa, transient hot wire",0.02724 ± 0.0017 W/m/K
same,thermal conductivity,"499.83 K, 647 kPa, transient hot wire",0.02739 ± 0.0017 W/m/K
same,thermal conductivity,"499.83 K, 13400 kPa, transient hot wire",0.04508 ± 0.0011 W/m/K
same,thermal conductivity,"499.84 K, 5595 kPa, transient hot wire",0.03734 ± 0.00089 W/m/K
same,thermal conductivity,"499.84 K, 13403 kPa, transient hot wire",0.04494 ± 0.0011 W/m/K
same,thermal conductivity,"499.84 K, 18418 kPa, transient hot wire",0.04825 ± 0.0012 W/m/K
same,thermal conductivity,"499.85 K, 3618 kPa, transient hot wire",0.0337 ± 0.0021 W/m/K
same,thermal conductivity,"499.85 K, 4324 kPa, transient hot wire",0.03554 ± 0.0022 W/m/K
same,thermal conductivity,"499.85 K, 25604 kPa, transient hot wire",0.05216 ± 0.0013 W/m/K
same,thermal conductivity,"499.85 K, 35654 kPa, transient hot wire",0.05672 ± 0.0014 W/m/K
same,thermal conductivity,"499.86 K, 4325 kPa, transient hot wire",0.03565 ± 0.0022 W/m/K
same,thermal conductivity,"499.87 K, 5595 kPa, transient hot wire",0.03732 ± 0.00089 W/m/K
same,thermal conductivity,"499.87 K, 35670 kPa, transient hot wire",0.05702 ± 0.0014 W/m/K
same,thermal conductivity,"499.88 K, 1594 kPa, transient hot wire",0.02746 ± 0.0009 W/m/K
same,thermal conductivity,"499.88 K, 1595 kPa, transient hot wire",0.02725 ± 0.00089 W/m/K
same,thermal conductivity,"499.88 K, 2128 kPa, transient hot wire",0.02824 ± 0.0017 W/m/K
same,thermal conductivity,"499.88 K, 2952 kPa, transient hot wire",0.03099 ± 0.0019 W/m/K
same,thermal conductivity,"499.88 K, 3619 kPa, transient hot wire",0.03371 ± 0.0021 W/m/K
same,thermal conductivity,"499.88 K, 3936 kPa, transient hot wire",0.03462 ± 0.0021 W/m/K
same,thermal conductivity,"499.89 K, 422 kPa, transient hot wire",0.02757 ± 0.0017 W/m/K
same,thermal conductivity,"499.89 K, 2128 kPa, transient hot wire",0.02826 ± 0.0017 W/m/K
same,thermal conductivity,"499.89 K, 2952 kPa, transient hot wire",0.03116 ± 0.0019 W/m/K
same,thermal conductivity,"499.89 K, 3936 kPa, transient hot wire",0.03474 ± 0.0021 W/m/K
same,thermal conductivity,"499.89 K, 35669 kPa, transient hot wire",0.05673 ± 0.0014 W/m/K
same,thermal conductivity,"499.9 K, 421 kPa, transient hot wire",0.02748 ± 0.0017 W/m/K
same,thermal conductivity,"499.91 K, 2567 kPa, transient hot wire",0.02946 ± 0.0018 W/m/K
same,thermal conductivity,"499.91 K, 3287 kPa, transient hot wire",0.03278 ± 0.002 W/m/K
same,thermal conductivity,"499.91 K, 10172 kPa, transient hot wire",0.0425 ± 0.001 W/m/K
same,thermal conductivity,"499.91 K, 25600 kPa, transient hot wire",0.05221 ± 0.0013 W/m/K
same,thermal conductivity,"499.92 K, 6555 kPa, transient hot wire",0.03863 ± 0.00092 W/m/K
same,thermal conductivity,"499.92 K, 10173 kPa, transient hot wire",0.0424 ± 0.001 W/m/K
